Here are results for 15 molecules from ChEMBL document CHEMBL1833944, “Conformationally constrained farnesoid X receptor (FXR) agonists: alternative replacements of the stilbene” (Bioorg Med Chem Lett, 2011).

A value given as a limit tells only on which side of the number the result lay.

Series [1] concerns the target T1, Bile acid receptor (Homo sapiens) (UniProt Q96RI1).
T1 sequence (whole entry): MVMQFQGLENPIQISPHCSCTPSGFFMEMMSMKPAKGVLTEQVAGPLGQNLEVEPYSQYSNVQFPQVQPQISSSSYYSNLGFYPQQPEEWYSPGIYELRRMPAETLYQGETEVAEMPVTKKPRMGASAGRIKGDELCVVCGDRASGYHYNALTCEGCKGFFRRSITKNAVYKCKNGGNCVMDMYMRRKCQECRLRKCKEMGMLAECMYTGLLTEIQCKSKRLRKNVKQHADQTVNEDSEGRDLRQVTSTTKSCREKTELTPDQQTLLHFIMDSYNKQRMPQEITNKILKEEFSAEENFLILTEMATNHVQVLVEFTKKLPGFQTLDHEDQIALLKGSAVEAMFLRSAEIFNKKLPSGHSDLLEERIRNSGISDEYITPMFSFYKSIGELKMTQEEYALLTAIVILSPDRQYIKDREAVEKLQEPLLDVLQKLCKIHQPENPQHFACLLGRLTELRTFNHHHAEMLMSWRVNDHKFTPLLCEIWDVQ
Briefly: Agonist activity at human FXR LBD transfected in african green monkey CV1 cells assessed as maximum efficacy after overnight incubation by luciferase reporter gene assay relative to GW4064. It is filed as functional, cell-based. To be noted: CV-1. (A reporter such as luciferase makes a cellular process visible.)

Series [2] deals with T1, Bile acid receptor (Homo sapiens). Briefly: Agonist activity at human amino-terminal polyhistidine-tagged FXR alpha LBD (amino acids 237 to 472) assessed as maximum efficacy measuring cofactor peptide SRC-1 interaction with receptor ligand binding domain after 2 hrs by FRET assay relative to GW4064.
The target of series [3] is T2, Bile acid receptor (Homo sapiens, UniProt Q96RI1).
T2 sequence (Q96RI1 whole entry): T1 sequence (whole entry)
Briefly: Agonist activity at human FXR LBD transfected in african green monkey CV1 cells after overnight incubation by luciferase reporter gene assay. The class given is functional, cell-based, CV-1.

In series [4] the target is T2, Bile acid receptor. Briefly: Agonist activity at human amino-terminal polyhistidine-tagged FXR alpha LBD (amino acids 237 to 472) assessed as cofactor peptide SRC-1 interaction with receptor ligand binding domain after 2 hrs by FRET assay.
The subject of series [5] is Rattus norvegicus. Briefly: Dose normalized AUC in rat at 5 mg/kg, po. It is filed as ADME, organism-based. To be noted: in vivo. More on the design: dose 5 mg/kg, route oral.
A short description of series [6]: Volume of distribution at steady state in rat at 1 mg/kg, iv. It is filed as ADME, organism-based. More on the design: dose 1 mg/kg, route intravenous. To be noted: in vivo, read-out: Vdss.
The nature of series [7]: Oral bioavailability in rat at 5 mg/kg. The class given is ADME, organism-based. To be noted: in vivo.
Series [8] is described as follows: Clearance in rat at 1 mg/kg, iv. More on the design: dose 1 mg/kg, route intravenous. Particulars: in vivo. The class given is ADME, organism-based.
Series [9] can be described thus: Terminal half life in rat at 1 mg/kg, iv. To be noted: in vivo, read-out: beta t1/2. It is filed as ADME, organism-based. More on the design: dose 1 mg/kg, route intravenous.
Series [10] is described as follows: Selectivity for human FXR over LXR alpha receptor.
A short description of series [11]: Selectivity for human FXR over PXR receptor.
Series [12] is described as follows: Selectivity for human FXR over PPAR delta receptor.
Series [13] is described as follows: Selectivity for human FXR over PPAR alpha receptor.
Series [14] is described as follows: Selectivity for human FXR over LXR beta receptor.
The nature of series [15]: Inhibition of Cytochrome P450. The class given is ADME.
Series [16] in a line: Selectivity for human FXR over PPAR gamma receptor.

`CC(C)c1onc(-c2c(Cl)cccc2Cl)c1COc1ccc(-c2ccc3c(c2)CCCC3C(=O)O)cc1` (stereo not given): the Emax (in general, the size of the effect at its maximum, as opposed to the concentration needed) in series [1] was 68%; in [2], 72%. For the same molecule, the results for the EC50 in [3] and in [4] were 750 nM and 550 nM, respectively.
Consider `CC(C)c1onc(-c2c(Cl)cccc2Cl)c1COc1ccc(-c2ccc3[nH]c(C(=O)O)cc3c2)cc1`, for which the AUC/dose in series [5] stood at 22 ng·kg·h/mL/mg. For the same molecule, the figures for the Emax in [1] and in [2] were 78% and 81%, respectively. Further, in series [6], the Vd was 1.3 L/kg. In addition, the bioavailability (usually the share of a dose that reaches the circulation, judged against a reference dose that is usually intravenous) in [7] is 7.1%. In addition, the EC50 (as a rule, the concentration giving half of the maximal effect) was 110 nM in [3] and 88 nM in [4]. Moreover, in series [8], the clearance (in general, the volume of plasma or blood freed of the substance per unit of time) is 55 mL/min/kg. In series [9], the half-life came out at 1.48 h.
With `CC(C)c1onc(-c2c(Cl)cccc2Cl)c1COc1ccc(-c2ccc3nc(C(=O)O)ccc3c2)cc1`, in series [5], the AUC/dose worked out at 130 ng·kg·h/mL/mg. The values for the Emax in [1] and in [2] were 102% and 105%, respectively. The Vd in series [6] came out at 3.4 L/kg. Besides, the clearance in series [8] stood at 32 mL/min/kg. Besides, in series [9], the half-life was 2.83 h.
Take `CC(C)c1onc(-c2c(Cl)cccc2Cl)c1COc1ccc(Cn2ccc3ccc(C(=O)O)cc32)cc1`: the maximum response (Emax) amounted to 42% in [1] and 38% in [2]. Further, the EC50 stood at 500 nM in [3] and 1000 nM in series [4].
`CC(C)c1onc(-c2c(Cl)cccc2Cl)c1COc1ccc(-c2ccc3c(C(=O)O)c[nH]c3c2)cc1` returned an AUC/dose in [5] of 11 ng·kg·h/mL/mg. Besides, the Emax was 35% in series [1] and 107% in series [2]. Also, the Vd in series [6] is 1.2 L/kg. The fold change (FC) in [10], in [11], in [12], in series [13], in [14] and in series [16] was more than 100 in each case. The bioavailability in [7] was 5.1%. The EC50 in [3] came out at 31 nM; in [4], 20 nM. In series [8], the clearance stood at 76 mL/min/kg. Besides, the half-life in [9] came to 0.433 h. Also, the IC50 – broadly, the point on the concentration scale where inhibition reaches its midpoint – in [15] is on record as more than 5000 nM.
As to `CC(C)c1onc(-c2c(Cl)cccc2Cl)c1COc1ccc(-c2ccc3oc(C(=O)O)cc3c2)cc1`, the AUC/dose in series [5] was 43 ng·kg·h/mL/mg. Besides, the values for the Emax in series [1] and in series [2] were 90% and 93%, respectively. Besides, the Vd in series [6] amounted to 1.7 L/kg. The bioavailability in [7] is 20%. Moreover, the EC50 in [3] turned out to be 130 nM; in series [4], 51 nM. The molecule also came in with a clearance in series [8] of 78 mL/min/kg. Moreover, the half-life in [9] amounted to 1.02 h.
In the case of `CC(C)c1onc(-c2c(Cl)cccc2Cl)c1COc1ccc(-c2ccc3cc(C(=O)O)[nH]c3c2)cc1`, the AUC/dose in series [5] stood at 16 ng·kg·h/mL/mg. For the same molecule, the values for the Emax in [1] and in [2] were 69% and 96%, respectively. Also, the Vd in series [6] was found to be 0.5 L/kg. In addition, the bioavailability in [7] came to 3%. The figures for the EC50 in [3] and in series [4] were 140 nM and 210 nM, respectively. Besides, in series [8], the clearance was 30 mL/min/kg. In addition, the half-life in series [9] came out at 1.17 h.
With `CC(C)c1onc(-c2c(Cl)cccc2Cl)c1COc1ccc(/C=C/c2cccc(C(=O)O)c2)c(Cl)c1`, the Emax in series [1] and in series [2] was 100% throughout.
Turning to `CC(C)c1onc(-c2c(Cl)cccc2Cl)c1COc1ccc(-c2ccc3sc(C(=O)O)cc3n2)cc1`, the Emax in [1] was 82%; in series [2], 53%. Moreover, the half-maximal effective concentration (EC50) is 1700 nM in series [3] and 670 nM in [4].
As for `CC(C)c1onc(-c2c(Cl)cccc2Cl)c1COc1ccc(-c2ccc3sc(C(=O)O)cc3c2)cc1`, the maximum response (Emax) was found to be 91% in series [1] and 77% in [2]. Also, the EC50 stood at 530 nM in series [3] and 250 nM in series [4].
In the same order, the values of `CC(C)c1onc(-c2c(Cl)cccc2Cl)c1COc1ccc(-c2nc3cccc(C(=O)O)c3[nH]2)cc1` are 36%, 61%, 1300 nM and 1200 nM.
The like results for `CC(C)c1onc(-c2c(Cl)cccc2Cl)c1COc1ccc(-c2ccc3c(c2)CC(C(=O)O)C3)cc1` (stereo not given) were, in that order, 59%, 75%, 490 nM and 750 nM.
`CC(C)c1onc(-c2c(Cl)cccc2Cl)c1COc1ccc(Sc2cccc3sc(C(=O)O)cc23)cc1`: the Emax in series [1] is 59%; in series [2], 72%. Besides, the concentration for a half-maximal effect (EC50) in series [3] was 990 nM; in [4], 190 nM.
`CC(C)c1onc(-c2c(Cl)cccc2Cl)c1COc1ccc(-c2ccc3c(C(=O)O)csc3c2)cc1`: the AUC/dose in series [5] is 0 ng·kg·h/mL/mg. Also, the results for the Emax in series [1] and in series [2] were 81% and 115%, respectively. Further, in series [6], the Vd worked out at 0.73 L/kg. For the same molecule, the bioavailability in [7] was determined as 0%. Moreover, the values for the EC50 in series [3] and in series [4] were 24 nM and 21 nM, respectively. For the same molecule, in series [8], the clearance was 50 mL/min/kg. The half-life in series [9] was 0.367 h.
With `CC(C)c1onc(-c2c(Cl)cccc2Cl)c1COc1ccc(-c2ccc3c(C(=O)O)cccc3c2)cc1`, the results for the Emax in series [1] and in series [2] were 104% and 134%, respectively.
